Among the data in ChEMBL document CHEMBL1136231, “Synthesis of a novel family of diterpenes and their evaluation as anti-inflammatory agents” (Bioorg Med Chem Lett, 2003) are Efficacy, IC50 and EC50 values, retold here.

≈ marks a conversion by molar mass, not a printed value. Calls of active or inactive are those of the source. No cut-off for these calls is given here.

Assay type in all cases: functional
Experiment [1] can be described thus: Inhibition efficacy of TNF-alpha was tested in HPBMC (Human Peripheral Blood Mononuclear Cells). On the set-up: concentration or dose not given beside the values.
Experiment [2] in a line: Inhibition of TNF-alpha was tested in HPBMC (Human Peripheral Blood Mononuclear Cells).
A short description of experiment [3]: (§1) Cytotoxicity in HPBMC (Human Peripheral Blood Mononuclear Cells).
Experiment [4] in a line: as §1. The arrangement: concentration or dose not given beside the values.
For experiment [5], the species on record is Homo sapiens. As to the kind of experiment: Inhibition efficacy of TNF-alpha was tested in HPBMC (Human Peripheral Blood Mononuclear Cells); Not active.
The species named for experiment [6] is Homo sapiens. As to the kind of experiment: (§2) Cytotoxicity in HPBMC (Human Peripheral Blood Mononuclear Cells); Not active.
The nature of experiment [7]: Inhibition of TNF-alpha was tested in HPBMC (Human Peripheral Blood Mononuclear Cells); Inactive.
A short description of experiment [8]: Inhibition of TNF-alpha was tested in HPBMC (Human Peripheral Blood Mononuclear Cells); In active.
Experiment [9] in a line: as §2.
A short description of experiment [10]: Inhibition of TNF-alpha was tested in HPBMC (Human Peripheral Blood Mononuclear Cells); inactive.

The term IC50 denotes the concentration needed to halve the response being measured. Usually EC50 stands for the midpoint of the concentration-response curve. In the case of `C=C[C@@]1(C)CCCC2=C1CC[C@@H]1[C@](C)(C(=O)O)CCC[C@@]21C`, the Efficacy was 98% in [1] and 99% in experiment [4]. In [2], this compound showed an IC50 of 2.8 µg/mL (≈ 9.26 µM). Besides, in experiment [3], the EC50 stood at 2.2 µg/mL (≈ 7.27 µM).

`C=C[C@]1(C)CCC=C2[C@H]1CC[C@@H]1[C@](C)(CO)CCC[C@@]21C`: the Efficacy stood at 99% in experiment [1] and 93% in experiment [4]. Also, the IC50 in [2] turned out to be 2.2 µg/mL (≈ 7.63 µM). In [3], this compound yielded an EC50 of 2.3 µg/mL (≈ 7.97 µM).

`C=C[C@@]1(C)CCCC2=C1CC[C@@H]1[C@](C)(CO)CCC[C@@]21C`: the Efficacy in [1] and in experiment [4] was 99% each time. Further, in [2], the IC50 came out at 3.1 µg/mL (≈ 10.7 µM). For the same compound, in [3], the EC50 was 3.4 µg/mL (≈ 11.8 µM).

Regarding `C[C@]1(C(=O)O)CCC[C@]2(C)c3cc(O)ccc3CC[C@@H]12` [PODOCARIC ACID], the Efficacy result in experiment [5] and in experiment [6] was “inactive” each time. The IC50 result in experiment [7] is given as “Not Active”.

On to `C=C[C@@]1(C)CCC=C2[C@H]1CC[C@@H]1[C@](C)(C(=O)O)CCC[C@@]21C`, for which the values for the Efficacy in experiment [1] and in experiment [4] were 90% and 66%, respectively. The compound also showed a concentration for half-maximal inhibition (IC50) in experiment [2] of 5.7 µg/mL (≈ 18.8 µM). It took 7.8 µg/mL (≈ 25.8 µM) to reach a half-maximal effect in experiment [3] (EC50).

Take `C=C[C@@]1(C)CCC=C2[C@H]1CC[C@@H]1[C@](C)(C(=O)OC)CCC[C@@]21C`: the values for the Efficacy in experiment [1] and in [4] were 99% and 98%, respectively. Besides, the IC50 in [2] is 0.7 µg/mL (≈ 2.21 µM). In experiment [3], this compound displayed an EC50 of 1.8 µg/mL (≈ 5.69 µM).

Compound `C=C[C@@]1(C)CCCC2=C1CC[C@@H]1[C@](C)(C(=O)OC)CCC[C@@]21C` had an Efficacy in [1] of 47%. The same compound returned an IC50 in experiment [2] of 0.6 µg/mL (≈ 1.9 µM). Besides, in experiment [6], the Efficacy result was “inactive”.

For the compound `COC(=O)[C@]1(C)CCC[C@@]2(C)C3=CCC[C@](C)(CO)[C@@H]3CC[C@H]12`, the Efficacy result in experiment [5] and in experiment [6] was “inactive” each time. Further, in experiment [8], the IC50 entry is given as “Not Active”. Moreover, the EC50 result in experiment [9] is recorded as “Not Active”.

On to `C=C[C@]1(C)CCC=C2[C@H]1CC[C@@H]1[C@](C)(C(=O)OC)CCC[C@@]21C`, for which the Efficacy is reported as 99% in [1] and 71% in experiment [4]. The compound also displayed an IC50 in experiment [2] of 1.4 µg/mL (≈ 4.42 µM). In experiment [3], this compound yielded an EC50 of 3.1 µg/mL (≈ 9.8 µM).

As for `C=C[C@]1(C)CCC=C2[C@H]1CC[C@@H]1[C@](C)(C(=O)O)CCC[C@@]21C`, the Efficacy in experiment [1] worked out at 86%; in experiment [4], 35%. In addition, it took 3.7 µg/mL (≈ 12.2 µM) to reach half-maximal inhibition in [2] (IC50).

`C=C[C@@]1(C)CCC=C2[C@H]1CC[C@@H]1[C@](C)(CO)CCC[C@@]21C` registered an Efficacy in experiment [1] of 38%. This compound also gave an IC50 in experiment [2] of 2.3 µg/mL (≈ 7.97 µM). Moreover, the Efficacy result in experiment [6] was “inactive”.

With `C=C[C@@]1(C)CC(=O)[C@]2(O)[C@@]3(C)[C@@H](O)CCC(C)(C)[C@@H]3[C@H](O)[C@H](OC(C)=O)[C@@]2(C)O1` [COLFORSIN], in experiment [10], the IC50 result is “Not Active”. For the same compound, the Efficacy result in [5] and in [6] was “inactive” in each case.
